# Experimental data reported in publication PMC8286840, “Identifying SARS-CoV-2 antiviral compounds by screening for small molecule inhibitors of Nsp3 papain-like protease” (Biochemical Journal, 2021).
# Structures can show the parent of a compound that is named as a salt. Where two headings read alike, the source gives them in different places.
# How the values were obtained:
# [1] = target: T1, SARS-CoV-2 PLpro (nsp3 1564–1878) (Severe acute respiratory syndrome coronavirus 2, UniProt P0DTD1); experiment: biochemical; parameters: FRET-quenched peptide (Pro3) cleavage by PLpro, 10 min pre-incubation, slope over 20 min, normalised to no-compound control; conditions: high concentration screen, read-out: % of control remaining
# [2] = target: T1, SARS-CoV-2 PLpro (nsp3 1564–1878); experiment: biochemical; parameters: FRET-quenched peptide (Pro3) cleavage by PLpro, 10 min pre-incubation, slope over 20 min, normalised to no-compound control; conditions: low concentration screen, read-out: % of control remaining
smiles,measurement,setting,value
N[C@@H]1CONC1=O [D-Cycloserine],remaining activity at 3.75 µM,[1]; Well no.=78,102%
same,remaining activity at 1.25 µM,[2]; Well no.=78,100%
O=C[C@H](O)[C@@H](O)[C@@H](O)[C@H](O)CO [D-Galactose],remaining activity at 3.75 µM,[1]; Well no.=6871,96.9%
same,remaining activity at 1.25 µM,[2]; Well no.=6871,103%
O=C[C@H](O)[C@@H](O)[C@H](O)[C@H](O)COP(=O)(O)O [D-Glucose 6-Phosphate],remaining activity at 3.75 µM,[1]; Well no.=7263,98.1%
same,remaining activity at 1.25 µM,[2]; Well no.=7263,98.2%
OC[C@@H](O)[C@@H](O)[C@H](O)[C@H](O)CO [D-Mannitol],remaining activity at 3.75 µM,[1]; Well no.=6397,96.4%
same,remaining activity at 3.75 µM,[1]; Well no.=8434,96.1%
same,remaining activity at 1.25 µM,[2]; Well no.=6397,104%
same,remaining activity at 1.25 µM,[2]; Well no.=8434,96.7%
OC[C@H]1OC(O)[C@@H](O)[C@@H](O)[C@@H]1O (stereo partly drawn) [D-Mannose],remaining activity at 3.75 µM,[1]; Well no.=7407,102%
same,remaining activity at 1.25 µM,[2]; Well no.=7407,103%
N[C@H](CO)C(=O)O [D-Serine],remaining activity at 3.75 µM,[1]; Well no.=1362,93.5%
same,remaining activity at 1.25 µM,[2]; Well no.=1362,92.8%
OC[C@@H](O)[C@@H](O)[C@H](O)[C@@H](O)CO [D-Sorbitol],remaining activity at 3.75 µM,[1]; Well no.=6253,112%
same,remaining activity at 1.25 µM,[2]; Well no.=6253,115%
CCCCCCCCCCCCCC(=O)N[C@H](C)[C@@H](O)c1ccccc1 [D-erythro MAPP],remaining activity at 3.75 µM,[1]; Well no.=4257,98.9%
same,remaining activity at 1.25 µM,[2]; Well no.=4257,105%
CCCCCCCCCCCCC/C=C/[C@@H](O)[C@@H](N)CO [D-erythro-Sphingosine],remaining activity at 3.75 µM,[1]; Well no.=7207,96.9%
same,remaining activity at 1.25 µM,[2]; Well no.=7207,100%
NC(=O)CC[C@@H](N)C(=O)O [D-glutamine],remaining activity at 3.75 µM,[1]; Well no.=4996,99.6%
same,remaining activity at 1.25 µM,[2]; Well no.=4996,98.2%
Nc1cccc(S(=O)(=O)N2CCCN(S(=O)(=O)c3ccc4c(c3)OCCO4)CC2)c1 [DASA-58],remaining activity at 3.75 µM,[1]; Well no.=8818,96.9%
same,remaining activity at 1.25 µM,[2]; Well no.=8818,95.3%
Clc1ccc(N2C[C@H]3CC[C@@H](C2)N3)nn1 [DBO-83],remaining activity at 3.75 µM,[1]; Well no.=630,98.1%
same,remaining activity at 1.25 µM,[2]; Well no.=630,63.4%
CCCCc1ccc(NS(=O)(=O)c2ccc(F)cc2)cc1 [DC260126],remaining activity at 3.75 µM,[1]; Well no.=6272,94.3%
same,remaining activity at 1.25 µM,[2]; Well no.=6272,94.7%
CCn1c(=O)[nH]c2cc(Cl)c(Cl)cc21 [DCEBIO],remaining activity at 3.75 µM,[1]; Well no.=538,104%
same,remaining activity at 1.25 µM,[2]; Well no.=538,102%
CCC(=O)N1CCN(C(=O)c2ccccc2)CC1 [DM 235],remaining activity at 3.75 µM,[1]; Well no.=453,96%
same,remaining activity at 1.25 µM,[2]; Well no.=453,96.3%
COc1cc(OC)c2cc(-c3ccncc3)cnc2c1 [DMPQ dihydrochloride],remaining activity at 3.75 µM,[1]; Well no.=5933,98.1%
same,remaining activity at 1.25 µM,[2]; Well no.=5933,100%
CC(=O)c1ccc(N2CCOCC2)cc1O [DNA-PK Inhibitor III],remaining activity at 3.75 µM,[1]; Well no.=2365,105%
same,remaining activity at 1.25 µM,[2]; Well no.=2365,104%
O=C(c1ccccc1)c1ccc(N2CCOCC2)cc1O [DNA-PK Inhibitor V],remaining activity at 3.75 µM,[1]; Well no.=2657,101%
same,remaining activity at 1.25 µM,[2]; Well no.=2657,95.5%
Cc1nc2c(c(=O)[nH]1)CSCC2 [DR2313],remaining activity at 3.75 µM,[1]; Well no.=5778,96.7%
same,remaining activity at 1.25 µM,[2]; Well no.=5778,96.1%
c1ccc2c(c1)N=C(N1CCNCC1)c1ccccc1N2 [DREADD agonist 21],remaining activity at 3.75 µM,[1]; Well no.=6943,100%
same,remaining activity at 1.25 µM,[2]; Well no.=6943,96.4%
CCN(CCCl)Cc1ccccc1Br [DSP-4 hydrochloride],remaining activity at 3.75 µM,[1]; Well no.=284,98%
same,remaining activity at 1.25 µM,[2]; Well no.=284,98.1%
CCCCCCOC(=O)NC(=N)c1ccc(NCc2nc3cc(C(=O)N(CCC(=O)OCC)c4ccccn4)ccc3n2C)cc1 [Dabigatran Etexilate],remaining activity at 3.75 µM,[1]; Well no.=8192,82.3%
same,remaining activity at 1.25 µM,[2]; Well no.=8192,95.6%
CN(C)/N=N/c1[nH]cnc1C(N)=O [Dacarbazine],remaining activity at 3.75 µM,[1]; Well no.=1940,99.4%
same,remaining activity at 1.25 µM,[2]; Well no.=1940,103%
"COc1cc2ncnc(Nc3ccc(F)c(Cl)c3)c2cc1NC(=O)/C=C/CN1CCCCC1 [Dacomitinib (PF299804,PF-00299804)]",remaining activity at 3.75 µM,[1]; Well no.=5027,95.4%
same,remaining activity at 1.25 µM,[2]; Well no.=5027,94.2%
O=c1c(-c2ccc(O)cc2)coc2cc(O)ccc12 [Daidzein],remaining activity at 3.75 µM,[1]; Well no.=438,99.2%
same,remaining activity at 3.75 µM,[1]; Well no.=3219,104%
same,remaining activity at 1.25 µM,[2]; Well no.=438,102%
same,remaining activity at 1.25 µM,[2]; Well no.=3219,103%
O=c1c(-c2ccc(O)cc2)coc2cc(O[C@@H]3O[C@H](CO)[C@@H](O)[C@H](O)[C@H]3O)ccc12 [Daidzin],remaining activity at 3.75 µM,[1]; Well no.=3249,102%
same,remaining activity at 1.25 µM,[2]; Well no.=3249,103%
"CCC(CC)CC1(C(=O)Nc2ccccc2SC(=O)C(C)C)CCCCC1 [Dalcetrapib (JTT-705, RO4607381)]",remaining activity at 3.75 µM,[1]; Well no.=8198,102%
same,remaining activity at 1.25 µM,[2]; Well no.=8198,102%
CCN(CC)CCS(=O)(=O)[C@@H]1CCN2C(=O)c3coc(n3)CC(=O)C[C@H](O)/C=C(C)/C=C/CNC(=O)/C=C/[C@@H](C)[C@@H](C(C)C)OC(=O)[C@@H]12 [Dalfopristin],remaining activity at 3.75 µM,[1]; Well no.=7876,93.8%
same,remaining activity at 1.25 µM,[2]; Well no.=7876,95%
C#C[C@]1(O)CC[C@H]2[C@@H]3CCC4=Cc5oncc5C[C@]4(C)[C@H]3CC[C@@]21C [Danazol],remaining activity at 3.75 µM,[1]; Well no.=584,97%
same,remaining activity at 3.75 µM,[1]; Well no.=1942,106%
same,remaining activity at 1.25 µM,[2]; Well no.=584,94.6%
same,remaining activity at 1.25 µM,[2]; Well no.=1942,105%
NCC(=O)N1C[C@H](NC(=O)c2ccccc2)C[C@H]1C(=O)O [Danegaptide Hydrochloride],remaining activity at 3.75 µM,[1]; Well no.=8026,100%
same,remaining activity at 1.25 µM,[2]; Well no.=8026,98.8%
Cc1c(F)cccc1NC(=O)Nc1ccc(Cl)c(S(=O)(=O)[C@H]2CCCNC2)c1O [Danirixin],remaining activity at 3.75 µM,[1]; Well no.=8173,103%
same,remaining activity at 1.25 µM,[2]; Well no.=8173,111%
CN1C[C@@H]2C[C@H]1CN2c1cc2c(cc1F)c(=O)c(C(=O)O)cn2C1CC1 [Danofloxacin Mesylate],remaining activity at 3.75 µM,[1]; Well no.=5322,86.3%
same,remaining activity at 1.25 µM,[2]; Well no.=5322,87.6%
O=C1CN(/N=C/c2ccc(-c3ccc([N+](=O)[O-])cc3)o2)C(=O)N1 [Dantrolene sodium salt],remaining activity at 3.75 µM,[1]; Well no.=5847,101%
same,remaining activity at 1.25 µM,[2]; Well no.=5847,104%
O=C1CN(/N=C/c2ccc(-c3ccc([N+](=O)[O-])cc3)o2)C(=O)N1 [Dantrolene sodium],remaining activity at 3.75 µM,[1]; Well no.=490,103%
same,remaining activity at 1.25 µM,[2]; Well no.=490,103%
CO[C@@H](C(=O)N1Cc2[nH]nc(NC(=O)c3ccc(N4CCN(C)CC4)cc3)c2C1)c1ccccc1 [Danusertib (PHA-739358)],remaining activity at 3.75 µM,[1]; Well no.=5045,106%
same,remaining activity at 1.25 µM,[2]; Well no.=5045,103%
CCOc1ccc(Cc2cc([C@@H]3O[C@H](CO)[C@@H](O)[C@H](O)[C@H]3O)ccc2Cl)cc1 [Dapagliflozin],remaining activity at 3.75 µM,[1]; Well no.=5291,95.8%
same,remaining activity at 1.25 µM,[2]; Well no.=5291,93.4%
